Experimental data published in ChEMBL document CHEMBL1765027, “5'-Modified pyrimidine nucleosides as inhibitors of ribonuclease A” (Bioorg Med Chem, 2011).
Active and inactive are the calls of the source. No cut-off for these calls is given here.

Tests used:
[1] = biological target: T1, Ribonuclease pancreatic (Bos taurus) (UniProt P61823); experiment: Inhibition of bovine pancreatic RNase A-mediated degradation of yeast tRNA assessed as residual tRNA band at 0.09 mM preincubated for 3 hrs measured after 30 mins of addition of tRNA using ethidium bromide staining by agarose gel based assay
T1 sequence (whole entry): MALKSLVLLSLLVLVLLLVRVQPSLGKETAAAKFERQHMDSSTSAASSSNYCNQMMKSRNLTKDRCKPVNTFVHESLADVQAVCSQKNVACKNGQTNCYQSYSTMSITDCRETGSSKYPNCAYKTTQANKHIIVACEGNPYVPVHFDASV

Ribonuclease pancreatic [2] = biological target: T2, Ribonuclease pancreatic (Bos taurus, UniProt P61823); experiment: Inhibition of bovine pancreatic RNase A using 2',3'-cCMP as a substrate by Lineweaver-Burk analysis
T2 sequence (P61823 whole entry): T1 sequence (whole entry)

[3] = biological target: T1, Ribonuclease pancreatic (Bos taurus); experiment: Inhibition of bovine pancreatic RNase A ribonucleolytic activity assessed as reduction of yeast tRNA degradation at 0.27 mM preincubated for 2 hrs by precipitation assay
[4] = biological target: T1, Ribonuclease pancreatic (Bos taurus); experiment: Inhibition of bovine pancreatic RNase A-mediated degradation of yeast tRNA assessed as residual tRNA band at 0.27 mM preincubated for 3 hrs measured after 30 mins of addition of tRNA using ethidium bromide staining by agarose gel based assay
[5] = biological target: T1, Ribonuclease pancreatic (Bos taurus); experiment: Inhibition of bovine pancreatic RNase A-mediated degradation of yeast tRNA assessed as residual tRNA band at 0.18 mM preincubated for 3 hrs measured after 30 mins of addition of tRNA using ethidium bromide staining by agarose gel based assay
Ribonuclease pancreatic [6] = biological target: T2, Ribonuclease pancreatic; experiment: Inhibition of bovine pancreatic RNase A using 2',3'-cCMP as a substrate by Dixon plot analysis
Ribonuclease pancreatic [7] = biological target: T2, Ribonuclease pancreatic; experiment: Inhibition of bovine pancreatic RNase A at pH 5.9 by spectrophotometric method

Compound	Activity [1]	Ki (Ribonuclease pancreatic [2])	inhibition [3]	Activity [4]	Activity [5]	Ki (Ribonuclease pancreatic [6])	Ki (Ribonuclease pancreatic [7])
Cc1cn([C@H]2C[C@@H](O)[C@@H](CN3CCC(C(=O)O)CC3)O2)c(=O)[nH]c1=O	Active	229 µM	18%	Active	Active	183 µM	
Cc1cn([C@H]2C=C[C@@H](CN3CCC(C(=O)O)CC3)O2)c(=O)[nH]c1=O	Active	250 µM	14%	Active	Active		
Nc1ncnc2c1ncn2[C@@H]1O[C@H](CO)[C@@H](OP(=O)(O)OC[C@H]2O[C@@H](n3ccc(=O)[nH]c3=O)C[C@@H]2OP(=O)(O)OP(=O)(O)O)[C@H]1O							0.027 µM

Continued, values first:

Activity [1]	Ki (Ribonuclease pancreatic [2])	inhibition [3]	Activity [4]	Activity [5]	Ki (Ribonuclease pancreatic [6])	Ki (Ribonuclease pancreatic [7])	Compound
Active	75 µM	37%	Active	Active	61 µM		O=C(O)C1CCN(C[C@H]2O[C@@H](n3ccc(=O)[nH]c3=O)[C@H](O)[C@@H]2O)CC1
Active	162 µM	23%	Active	Active	121 µM		Cc1cn([C@H]2C[C@H](O)[C@@H](CN3CCC(C(=O)O)CC3)O2)c(=O)[nH]c1=O
